Data on 7 compounds can be found in ChEMBL document CHEMBL3132769, “Fragment growing to retain or alter the selectivity of anchored kinase hinge-binding fragments” (Medchemcomm, 2014).

In test [1] the target is Mitogen-activated protein kinase 3 (Homo sapiens) (UniProt P27361). Description: Inhibition of human full length ERK1 expressed in Escherichia coli cell assessed as substrate phosphorylation using fluorescence-labelled peptides as substrate at 95 uM after 90 mins by microfluidic peptide phosphorylation assay.
Test [2] deals with Protein kinase C beta type (Homo sapiens) (UniProt P05771). Description: Inhibition of human full length PKC beta2 expressed in baculovirus assessed as substrate phosphorylation using fluorescence-labelled peptides as substrate at 9 uM after 90 mins by microfluidic peptide phosphorylation assay.
Test [3] deals with T1, Aurora kinase A (Homo sapiens) (UniProt O14965).
T1 sequence (whole entry): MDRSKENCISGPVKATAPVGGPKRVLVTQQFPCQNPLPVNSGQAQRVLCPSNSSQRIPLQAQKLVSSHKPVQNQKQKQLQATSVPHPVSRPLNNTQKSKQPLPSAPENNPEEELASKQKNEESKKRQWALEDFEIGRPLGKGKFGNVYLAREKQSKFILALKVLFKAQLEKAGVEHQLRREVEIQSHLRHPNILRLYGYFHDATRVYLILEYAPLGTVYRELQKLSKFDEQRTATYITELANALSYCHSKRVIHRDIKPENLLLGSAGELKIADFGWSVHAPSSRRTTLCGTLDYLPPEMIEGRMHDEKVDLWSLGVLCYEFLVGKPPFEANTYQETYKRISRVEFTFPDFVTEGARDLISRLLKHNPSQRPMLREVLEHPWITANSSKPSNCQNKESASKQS
Description: Inhibition of human full length AurA expressed in baculovirus assessed as substrate phosphorylation using fluorescence-labelled peptides as substrate at 8 uM after 90 mins by microfluidic peptide phosphorylation assay.

Test [4] deals with MAP kinase-activated protein kinase 3 (Homo sapiens) (UniProt Q16644). Description: Inhibition of human full length MAPKAPK3 expressed in Escherichia coli cell assessed as substrate phosphorylation using fluorescence-labelled peptides as substrate at 8 uM after 90 mins by microfluidic peptide phosphorylation assay.
For test [5], the target named is Protein kinase C beta type (Homo sapiens) (UniProt P05771). Description: Inhibition of human truncated PKC beta1 expressed in baculovirus assessed as substrate phosphorylation using fluorescence-labelled peptides as substrate at 8 uM after 90 mins by microfluidic peptide phosphorylation assay.
Test [6] deals with T2, Serine/threonine-protein kinase Sgk3 (Homo sapiens) (UniProt Q96BR1).
T2 sequence (whole entry): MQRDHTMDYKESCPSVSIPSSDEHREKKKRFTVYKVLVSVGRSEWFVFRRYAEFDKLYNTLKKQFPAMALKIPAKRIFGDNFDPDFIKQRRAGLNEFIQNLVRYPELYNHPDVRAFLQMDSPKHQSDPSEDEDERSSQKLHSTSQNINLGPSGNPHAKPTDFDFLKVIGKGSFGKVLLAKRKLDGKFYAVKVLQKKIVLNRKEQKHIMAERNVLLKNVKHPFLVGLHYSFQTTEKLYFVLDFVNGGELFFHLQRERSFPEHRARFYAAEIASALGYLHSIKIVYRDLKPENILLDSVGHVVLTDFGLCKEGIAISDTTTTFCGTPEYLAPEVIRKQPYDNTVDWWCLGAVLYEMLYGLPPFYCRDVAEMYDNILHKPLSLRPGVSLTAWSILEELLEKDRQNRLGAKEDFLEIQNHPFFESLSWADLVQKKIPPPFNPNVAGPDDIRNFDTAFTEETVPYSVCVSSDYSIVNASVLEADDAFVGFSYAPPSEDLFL
Briefly: Inhibition of human full length SGK3 expressed in baculovirus assessed as substrate phosphorylation using fluorescence-labelled peptides as substrate at 8 uM after 90 mins by microfluidic peptide phosphorylation assay.

For test [7], the target named is Tyrosine-protein kinase Lck (Homo sapiens) (UniProt P06239). Description: Inhibition of human full length LCK expressed in baculovirus assessed as substrate phosphorylation using fluorescence-labelled peptides as substrate at 1000 uM after 90 mins by microfluidic peptide phosphorylation assay.
The target of test [8] is Insulin receptor (Homo sapiens) (UniProt P06213). Briefly: Inhibition of human INSR catalytic domain expressed in baculovirus assessed as substrate phosphorylation using fluorescence-labelled peptides as substrate at 0.06 uM after 90 mins by microfluidic peptide phosphorylation assay.
Test [9] concerns the target Insulin-like growth factor 1 receptor (Homo sapiens) (UniProt P08069). Briefly: Inhibition of human IGF1R catalytic domain expressed in baculovirus assessed as substrate phosphorylation using fluorescence-labelled peptides as substrate at 0.06 uM after 90 mins by microfluidic peptide phosphorylation assay.
The target of test [10] is T3, Mitogen-activated protein kinase 12 (Homo sapiens) (UniProt P53778).
T3 sequence (whole entry): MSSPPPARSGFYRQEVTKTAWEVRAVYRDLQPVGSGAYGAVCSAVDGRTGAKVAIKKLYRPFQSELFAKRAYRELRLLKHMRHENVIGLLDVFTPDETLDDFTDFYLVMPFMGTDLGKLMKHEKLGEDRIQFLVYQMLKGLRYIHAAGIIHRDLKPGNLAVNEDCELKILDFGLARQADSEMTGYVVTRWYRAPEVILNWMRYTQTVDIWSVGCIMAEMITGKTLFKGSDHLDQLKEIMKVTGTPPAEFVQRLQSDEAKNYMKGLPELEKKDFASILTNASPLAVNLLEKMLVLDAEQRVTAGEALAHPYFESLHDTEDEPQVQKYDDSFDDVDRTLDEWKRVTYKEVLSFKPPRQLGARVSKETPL
Briefly: Inhibition of human full length p38 gamma expressed in Escherichia coli cell assessed as substrate phosphorylation using fluorescence-labelled peptides as substrate at 2 uM after 90 mins by microfluidic peptide phosphorylation assay.

In test [11] the target is T4, Interleukin-1 receptor-associated kinase 4 (Homo sapiens) (UniProt Q9NWZ3).
T4 sequence (whole entry): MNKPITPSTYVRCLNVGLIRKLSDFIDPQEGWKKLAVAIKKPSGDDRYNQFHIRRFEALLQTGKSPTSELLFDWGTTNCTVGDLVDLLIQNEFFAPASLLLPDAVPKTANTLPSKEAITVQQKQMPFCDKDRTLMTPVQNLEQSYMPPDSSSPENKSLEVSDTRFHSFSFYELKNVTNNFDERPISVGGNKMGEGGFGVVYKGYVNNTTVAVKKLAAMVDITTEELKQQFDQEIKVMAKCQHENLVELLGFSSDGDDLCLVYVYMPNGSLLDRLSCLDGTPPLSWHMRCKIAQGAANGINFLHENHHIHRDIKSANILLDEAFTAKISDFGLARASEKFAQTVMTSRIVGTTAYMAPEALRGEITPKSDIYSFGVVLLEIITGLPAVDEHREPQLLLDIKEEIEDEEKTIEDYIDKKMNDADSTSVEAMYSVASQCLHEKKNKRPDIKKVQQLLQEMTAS
Description: Inhibition of human IRAK4 catalytic domain expressed in baculovirus assessed as substrate phosphorylation using fluorescence-labelled peptides as substrate at 70 uM after 90 mins by microfluidic peptide phosphorylation assay.

The target in test [12] is Tyrosine-protein kinase BTK (Homo sapiens) (UniProt Q06187). Briefly: Inhibition of human full length BTK expressed in baculovirus assessed as substrate phosphorylation using fluorescence-labelled peptides as substrate at 70 uM after 90 mins by microfluidic peptide phosphorylation assay.
Chain of Tyrosine-protein kinase BTK (Homo sapiens) (Q06187 whole entry): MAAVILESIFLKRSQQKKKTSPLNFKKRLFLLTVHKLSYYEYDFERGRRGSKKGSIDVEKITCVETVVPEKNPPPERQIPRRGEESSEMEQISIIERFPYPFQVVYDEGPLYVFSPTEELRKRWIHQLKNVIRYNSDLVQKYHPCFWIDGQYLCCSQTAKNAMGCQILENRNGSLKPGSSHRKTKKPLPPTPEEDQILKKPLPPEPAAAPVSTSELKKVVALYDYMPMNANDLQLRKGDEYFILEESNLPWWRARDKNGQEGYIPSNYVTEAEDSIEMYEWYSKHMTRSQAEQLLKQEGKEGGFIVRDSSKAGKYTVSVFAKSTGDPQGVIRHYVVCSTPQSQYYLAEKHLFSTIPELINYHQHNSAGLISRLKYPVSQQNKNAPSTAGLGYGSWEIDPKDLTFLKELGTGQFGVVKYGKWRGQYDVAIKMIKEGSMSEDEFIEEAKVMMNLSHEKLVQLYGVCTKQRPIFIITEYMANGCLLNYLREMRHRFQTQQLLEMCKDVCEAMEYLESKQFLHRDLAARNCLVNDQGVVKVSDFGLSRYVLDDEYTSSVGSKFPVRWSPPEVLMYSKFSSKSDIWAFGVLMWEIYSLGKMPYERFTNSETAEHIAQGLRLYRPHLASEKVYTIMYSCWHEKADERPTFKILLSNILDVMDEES

Chain of Protein kinase C beta type (Homo sapiens) (P05771 2-671 limits assumed): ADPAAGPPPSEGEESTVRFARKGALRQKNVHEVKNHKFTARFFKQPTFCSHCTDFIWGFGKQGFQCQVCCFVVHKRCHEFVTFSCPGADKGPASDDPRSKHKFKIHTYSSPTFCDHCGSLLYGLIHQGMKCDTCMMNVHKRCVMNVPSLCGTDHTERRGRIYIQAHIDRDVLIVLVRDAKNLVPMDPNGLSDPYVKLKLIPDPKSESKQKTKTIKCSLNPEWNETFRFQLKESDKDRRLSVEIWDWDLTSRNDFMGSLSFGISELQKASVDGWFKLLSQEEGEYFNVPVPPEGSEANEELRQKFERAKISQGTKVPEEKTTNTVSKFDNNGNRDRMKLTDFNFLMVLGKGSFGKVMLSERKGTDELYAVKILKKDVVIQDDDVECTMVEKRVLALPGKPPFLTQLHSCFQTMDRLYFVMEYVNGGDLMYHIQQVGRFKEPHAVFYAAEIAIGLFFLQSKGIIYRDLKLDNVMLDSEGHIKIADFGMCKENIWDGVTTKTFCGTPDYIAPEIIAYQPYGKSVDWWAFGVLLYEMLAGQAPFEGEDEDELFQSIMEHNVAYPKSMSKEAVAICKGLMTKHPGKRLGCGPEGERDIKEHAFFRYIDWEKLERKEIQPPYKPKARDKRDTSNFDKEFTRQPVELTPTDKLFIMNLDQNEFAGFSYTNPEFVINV
Chain of Tyrosine-protein kinase Lck (Homo sapiens) (P06239 2-509 limits assumed): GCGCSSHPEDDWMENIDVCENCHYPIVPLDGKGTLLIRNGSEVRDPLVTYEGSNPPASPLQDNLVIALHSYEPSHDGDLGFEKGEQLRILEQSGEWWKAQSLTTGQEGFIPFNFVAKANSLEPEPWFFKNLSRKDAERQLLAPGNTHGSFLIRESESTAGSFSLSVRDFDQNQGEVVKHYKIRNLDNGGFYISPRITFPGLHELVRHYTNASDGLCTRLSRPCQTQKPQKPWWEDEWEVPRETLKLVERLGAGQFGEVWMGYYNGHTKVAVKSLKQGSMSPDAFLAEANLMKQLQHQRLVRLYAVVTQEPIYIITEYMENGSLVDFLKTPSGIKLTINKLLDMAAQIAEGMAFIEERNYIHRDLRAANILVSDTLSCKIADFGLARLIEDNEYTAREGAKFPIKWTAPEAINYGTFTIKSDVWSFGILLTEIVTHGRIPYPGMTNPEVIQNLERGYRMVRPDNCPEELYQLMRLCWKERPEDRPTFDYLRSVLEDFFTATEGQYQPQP
Chain of Mitogen-activated protein kinase 3 (Homo sapiens) (P27361 whole entry): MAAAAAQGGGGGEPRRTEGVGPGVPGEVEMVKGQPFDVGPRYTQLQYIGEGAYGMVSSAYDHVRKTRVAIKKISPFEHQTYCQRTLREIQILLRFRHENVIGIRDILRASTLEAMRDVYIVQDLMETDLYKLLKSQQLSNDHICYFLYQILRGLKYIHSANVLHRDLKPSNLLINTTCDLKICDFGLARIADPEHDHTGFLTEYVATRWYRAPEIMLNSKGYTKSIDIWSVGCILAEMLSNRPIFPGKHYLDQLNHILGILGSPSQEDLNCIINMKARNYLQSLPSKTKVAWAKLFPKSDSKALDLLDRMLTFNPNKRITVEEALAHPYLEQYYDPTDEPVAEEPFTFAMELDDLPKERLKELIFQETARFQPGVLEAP
Chain of MAP kinase-activated protein kinase 3 (Homo sapiens) (Q16644 whole entry, looked up, the tested form may be a part): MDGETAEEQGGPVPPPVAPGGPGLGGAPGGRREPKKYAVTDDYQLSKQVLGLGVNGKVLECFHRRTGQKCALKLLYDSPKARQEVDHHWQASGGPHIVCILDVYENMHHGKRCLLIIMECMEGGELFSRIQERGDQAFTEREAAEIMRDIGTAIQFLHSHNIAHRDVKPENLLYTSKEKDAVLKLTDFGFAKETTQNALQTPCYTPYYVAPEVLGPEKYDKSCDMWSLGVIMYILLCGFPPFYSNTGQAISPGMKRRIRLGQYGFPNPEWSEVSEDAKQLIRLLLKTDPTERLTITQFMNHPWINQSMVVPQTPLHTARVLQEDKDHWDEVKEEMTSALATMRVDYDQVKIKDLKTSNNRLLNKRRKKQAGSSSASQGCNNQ

By inhibition is commonly meant the change of the read-out against control, counted positive when it falls. Turning to `NCCc1ccc(-c2ncnc3[nH]cnc23)cc1`, in [1], the inhibition stood at 59%. For `NCC1CN(c2ncnc3[nH]c4cnccc4c23)CCO1` (configuration not stated), the inhibition in [2] turned out to be 23.5%. With `NCC1CCN(c2ncnc3[nH]ccc23)CC1`, the inhibition in [3] stood at 87.5%; in test [4], 81.5%; in [5], 50.5%; in test [6], 83%. As for `c1cnc2[nH]ccc2c1`, the inhibition in test [7] came to 29%.

On to `NC1(Cc2ccc(Cl)cc2)CCN(c2ncnc3[nH]ccc23)CC1`, for which the values for the inhibition in [8] and in [9] were 6% and 0%, respectively. With `NC1CCN(c2ncnc3[nH]ccc23)CC1`, the inhibition in [10] is 1.5%.

For the compound `CNCc1ccc(-c2ncnc3[nH]cnc23)cc1`, the inhibition in test [11] is 15%; in test [12], 0%.
